The values below come from ChEMBL document CHEMBL5236580, “Blocking Non-enzymatic Functions by PROTAC-Mediated Targeted Protein Degradation” (J Med Chem, 2022).

Structures are written as SMILES.

One experiment has as its system MV4-11. The experiment can be described thus: Induction of cell cycle arrest in human MV4-11 cells assessed as accumulation of cells at G2/M phase measured after 12 hrs. It is filed as functional, cell-based. Conditions: MV4-11, 12 h.
The target in experiment [1] is Protein cereblon/Protein deacetylase HDAC6 (Homo sapiens) (UniProt Q9UBN7+Q96SW2). The experiment can be described thus: PROTAC activity at CRBN/HDAC6 in human K562 cells assessed as degradation of HDAC6 relative to control. The experiment is classed as cell-based.
Experiment [2] addresses Protein cereblon/Protein deacetylase HDAC6 (Homo sapiens, UniProt Q96SW2+Q9UBN7). The experiment can be described thus: PROTAC activity at CRBN/HDAC6 in human K562 cells assessed as degradation of HDAC6. It is filed as cell-based.
Experiment [3] can be described thus: Antiproliferative activity against human MINO cells harbouring p53 mutant. It is filed as functional, cell-based.
Another experiment has as its system JeKo-1. The experiment can be described thus: Antiproliferative activity against human JeKo-1 cells harbouring p53 mutant. The experiment is classed as functional, cell-based.
Experiment [4] deals with Ubiquitin carboxyl-terminal hydrolase 7 (Homo sapiens, UniProt Q93009). The experiment can be described thus: Induction of degradation of USP7 (unknown origin).
Experiment [5] addresses T1, Focal adhesion kinase 1 (Homo sapiens, UniProt Q05397). The experiment can be described thus: Induction of degradation of Fak in human PC-3 cells. The experiment is classed as cell-based.
Target sequence in this assay (Q05397 whole entry): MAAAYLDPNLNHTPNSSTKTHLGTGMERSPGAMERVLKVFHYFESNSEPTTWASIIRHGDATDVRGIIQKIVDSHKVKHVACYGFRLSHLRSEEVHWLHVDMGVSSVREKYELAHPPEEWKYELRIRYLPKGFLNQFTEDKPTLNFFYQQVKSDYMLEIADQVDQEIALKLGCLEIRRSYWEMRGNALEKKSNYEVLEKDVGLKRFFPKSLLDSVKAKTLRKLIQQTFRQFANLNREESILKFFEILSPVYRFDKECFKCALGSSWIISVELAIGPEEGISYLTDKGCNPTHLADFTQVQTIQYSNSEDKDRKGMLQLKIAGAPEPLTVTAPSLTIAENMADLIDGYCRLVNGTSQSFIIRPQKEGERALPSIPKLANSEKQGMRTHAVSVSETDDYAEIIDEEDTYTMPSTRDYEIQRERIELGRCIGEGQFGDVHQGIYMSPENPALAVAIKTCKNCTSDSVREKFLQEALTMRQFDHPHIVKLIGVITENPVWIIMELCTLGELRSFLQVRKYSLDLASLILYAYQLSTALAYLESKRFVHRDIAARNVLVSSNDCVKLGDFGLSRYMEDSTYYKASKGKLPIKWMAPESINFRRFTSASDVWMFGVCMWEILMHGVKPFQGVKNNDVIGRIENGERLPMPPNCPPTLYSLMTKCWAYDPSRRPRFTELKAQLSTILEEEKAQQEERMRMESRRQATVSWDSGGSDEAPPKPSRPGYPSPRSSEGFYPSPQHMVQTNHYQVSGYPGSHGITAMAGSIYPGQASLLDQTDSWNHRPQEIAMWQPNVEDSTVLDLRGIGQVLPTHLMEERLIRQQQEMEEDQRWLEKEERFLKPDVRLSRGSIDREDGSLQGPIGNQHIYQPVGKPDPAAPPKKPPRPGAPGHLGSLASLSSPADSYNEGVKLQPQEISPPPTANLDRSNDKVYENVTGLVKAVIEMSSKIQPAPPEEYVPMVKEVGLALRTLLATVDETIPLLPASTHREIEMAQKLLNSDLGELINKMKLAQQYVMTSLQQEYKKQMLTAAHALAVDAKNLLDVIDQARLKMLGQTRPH
Experiment [6] concerns the target T1, Focal adhesion kinase 1. The experiment can be described thus: Induction of degradation of Fak in human PC-3 cells assessed as maximum degradation relative to control. The experiment is classed as cell-based.
Target sequence in this assay (Q05397 2-1052 limits assumed): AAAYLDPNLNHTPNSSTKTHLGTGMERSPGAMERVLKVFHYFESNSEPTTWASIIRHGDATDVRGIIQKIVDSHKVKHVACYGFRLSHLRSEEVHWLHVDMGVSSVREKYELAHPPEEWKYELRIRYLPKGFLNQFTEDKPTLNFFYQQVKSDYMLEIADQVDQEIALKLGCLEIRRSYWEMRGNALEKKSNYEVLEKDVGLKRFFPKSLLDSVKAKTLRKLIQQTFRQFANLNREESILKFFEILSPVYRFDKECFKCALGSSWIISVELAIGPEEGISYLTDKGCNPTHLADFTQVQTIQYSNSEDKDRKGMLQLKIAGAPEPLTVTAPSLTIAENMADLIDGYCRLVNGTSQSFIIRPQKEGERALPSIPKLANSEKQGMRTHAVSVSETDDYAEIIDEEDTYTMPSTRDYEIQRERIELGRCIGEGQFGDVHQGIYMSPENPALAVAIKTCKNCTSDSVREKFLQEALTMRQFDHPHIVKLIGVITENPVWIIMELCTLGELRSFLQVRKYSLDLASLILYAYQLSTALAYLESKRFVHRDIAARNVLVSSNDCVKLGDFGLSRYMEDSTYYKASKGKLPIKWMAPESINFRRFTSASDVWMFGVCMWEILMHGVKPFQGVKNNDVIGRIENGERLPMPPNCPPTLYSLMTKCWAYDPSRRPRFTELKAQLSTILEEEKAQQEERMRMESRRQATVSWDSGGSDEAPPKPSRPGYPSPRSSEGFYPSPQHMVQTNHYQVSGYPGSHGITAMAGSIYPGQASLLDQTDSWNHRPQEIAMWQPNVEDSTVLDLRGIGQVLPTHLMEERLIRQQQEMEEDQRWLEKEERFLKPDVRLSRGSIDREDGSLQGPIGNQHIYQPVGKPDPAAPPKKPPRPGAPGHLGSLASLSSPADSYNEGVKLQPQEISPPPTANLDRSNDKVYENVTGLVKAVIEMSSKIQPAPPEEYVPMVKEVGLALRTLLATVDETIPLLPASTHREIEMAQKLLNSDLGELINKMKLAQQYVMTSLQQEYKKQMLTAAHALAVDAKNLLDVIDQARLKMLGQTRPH
Experiment [7] concerns the target Peptidyl-prolyl cis-trans isomerase FKBP1A (Homo sapiens, UniProt P62942). The experiment can be described thus: Induction of degradation of FKBP12 (unknown origin).
Experiment [8] in a line: Antitumor activity against human MDSC cells xenografted in BALB/c mouse assessed as tumor growth inhibition relative to control. The experiment is classed as functional, Myeloid-derived suppressor cell.
Experiment [9] concerns the target T2, Histone-lysine N-methyltransferase EZH2 (Homo sapiens, UniProt Q15910). The experiment can be described thus: Induction of degradation of EZH2 in human MV4-11 cells assessed as maximum degradation relative to control. It is filed as cell-based.
Target sequence in this assay (Q15910 whole entry, looked up): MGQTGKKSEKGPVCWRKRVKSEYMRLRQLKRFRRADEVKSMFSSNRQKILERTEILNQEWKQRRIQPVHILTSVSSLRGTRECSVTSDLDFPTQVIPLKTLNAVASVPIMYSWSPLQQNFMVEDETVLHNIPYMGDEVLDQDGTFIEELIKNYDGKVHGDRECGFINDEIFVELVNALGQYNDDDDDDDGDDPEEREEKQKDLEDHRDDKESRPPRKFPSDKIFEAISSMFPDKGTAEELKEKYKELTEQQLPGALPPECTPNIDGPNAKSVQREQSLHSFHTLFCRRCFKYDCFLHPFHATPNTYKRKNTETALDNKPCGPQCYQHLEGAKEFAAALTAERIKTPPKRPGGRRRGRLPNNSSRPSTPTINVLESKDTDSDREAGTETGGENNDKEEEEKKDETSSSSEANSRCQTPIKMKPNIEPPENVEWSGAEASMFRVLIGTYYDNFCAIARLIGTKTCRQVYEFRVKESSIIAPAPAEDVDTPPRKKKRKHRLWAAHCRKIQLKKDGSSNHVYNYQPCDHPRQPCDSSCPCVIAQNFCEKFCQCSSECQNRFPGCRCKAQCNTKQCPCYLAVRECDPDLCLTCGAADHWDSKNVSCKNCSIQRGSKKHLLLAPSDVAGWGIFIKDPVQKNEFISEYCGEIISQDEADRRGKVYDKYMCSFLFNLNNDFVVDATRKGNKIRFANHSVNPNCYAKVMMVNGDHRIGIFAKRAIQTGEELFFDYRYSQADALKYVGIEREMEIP
Experiment [10] addresses T2, Histone-lysine N-methyltransferase EZH2. The experiment can be described thus: Inhibition of EZH2 (unknown origin).
Target sequence in this assay (Q15910 whole entry): as the sequence (Q15910 whole entry, looked up) above
For experiment [11] the target is unchanged. The experiment can be described thus: Induction of degradation of EZH2 in human EOL1 cells assessed as maximum degradation relative to control. It is filed as cell-based.
Target sequence in this assay (Q15910 whole entry, looked up): as above
Experiment [12] shares this target. The experiment can be described thus: Induction of degradation of EZH2 in human EOL1 cells. The experiment is classed as cell-based.
Target sequence in this assay (Q15910 whole entry): as the sequence (Q15910 whole entry, looked up) above
For experiment [13] the target is unchanged. The experiment can be described thus: Induction of degradation of EZH2 in human MV4-11 cells. The experiment is classed as cell-based.
Target sequence in this assay (Q15910 whole entry): as the sequence (Q15910 whole entry, looked up) above
The nature of experiment [14]: Antiproliferative activity against human TNBC ductal adenocarcinoma cells assessed as cell growth inhibition. Conditions: Triple-negative breast cancer cell. It is filed as functional.
Experiment [15] is described as follows: Antiproliferative activity against human Triple-negative breast cancer cells assessed as cell growth inhibition. It is filed as functional.
Experiment [16] concerns the target T2, Histone-lysine N-methyltransferase EZH2. The experiment can be described thus: Induction of degradation of EZH2 degradation in human MDA-MB-453 cells. It is filed as cell-based.
Target sequence in this assay (Q15910 whole entry): as the sequence (Q15910 whole entry, looked up) above
The nature of experiment [17]: Growth inhibition of human Triple-negative breast cancer cells. It is filed as functional. To be noted: Triple-negative breast cancer cell.
The next experiment has as its target T3, Aurora kinase A (Homo sapiens, UniProt O14965).
T3 sequence (O14965 whole entry): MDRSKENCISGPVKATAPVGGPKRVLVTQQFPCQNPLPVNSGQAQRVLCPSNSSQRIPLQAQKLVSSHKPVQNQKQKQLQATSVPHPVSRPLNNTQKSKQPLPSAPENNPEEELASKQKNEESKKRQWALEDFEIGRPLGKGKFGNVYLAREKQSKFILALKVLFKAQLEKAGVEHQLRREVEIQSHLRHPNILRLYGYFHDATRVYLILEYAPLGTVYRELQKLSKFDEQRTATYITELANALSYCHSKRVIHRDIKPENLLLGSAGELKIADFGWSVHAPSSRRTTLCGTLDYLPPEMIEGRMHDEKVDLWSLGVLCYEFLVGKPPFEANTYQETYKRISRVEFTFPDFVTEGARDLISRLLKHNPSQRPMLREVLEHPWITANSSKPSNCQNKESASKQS
The experiment can be described thus: Induction of degradation of AURORA-A in human MV4-11 cells. It is filed as cell-based.

The target of experiment [18] is T4, von Hippel-Lindau disease tumor suppressor/Focal adhesion kinase 1 (Mus musculus) (UniProt P34152+P40338). The experiment can be described thus: In vivo protac activity at VHL/FAK xenografted in CD-1 mouse liver assessed as increased in FAK degradation at 80 mg/kg, sc incubated for 18 hrs relative to control. It is filed as functional, organism-based.
T4 sequence (P34152 whole entry, looked up): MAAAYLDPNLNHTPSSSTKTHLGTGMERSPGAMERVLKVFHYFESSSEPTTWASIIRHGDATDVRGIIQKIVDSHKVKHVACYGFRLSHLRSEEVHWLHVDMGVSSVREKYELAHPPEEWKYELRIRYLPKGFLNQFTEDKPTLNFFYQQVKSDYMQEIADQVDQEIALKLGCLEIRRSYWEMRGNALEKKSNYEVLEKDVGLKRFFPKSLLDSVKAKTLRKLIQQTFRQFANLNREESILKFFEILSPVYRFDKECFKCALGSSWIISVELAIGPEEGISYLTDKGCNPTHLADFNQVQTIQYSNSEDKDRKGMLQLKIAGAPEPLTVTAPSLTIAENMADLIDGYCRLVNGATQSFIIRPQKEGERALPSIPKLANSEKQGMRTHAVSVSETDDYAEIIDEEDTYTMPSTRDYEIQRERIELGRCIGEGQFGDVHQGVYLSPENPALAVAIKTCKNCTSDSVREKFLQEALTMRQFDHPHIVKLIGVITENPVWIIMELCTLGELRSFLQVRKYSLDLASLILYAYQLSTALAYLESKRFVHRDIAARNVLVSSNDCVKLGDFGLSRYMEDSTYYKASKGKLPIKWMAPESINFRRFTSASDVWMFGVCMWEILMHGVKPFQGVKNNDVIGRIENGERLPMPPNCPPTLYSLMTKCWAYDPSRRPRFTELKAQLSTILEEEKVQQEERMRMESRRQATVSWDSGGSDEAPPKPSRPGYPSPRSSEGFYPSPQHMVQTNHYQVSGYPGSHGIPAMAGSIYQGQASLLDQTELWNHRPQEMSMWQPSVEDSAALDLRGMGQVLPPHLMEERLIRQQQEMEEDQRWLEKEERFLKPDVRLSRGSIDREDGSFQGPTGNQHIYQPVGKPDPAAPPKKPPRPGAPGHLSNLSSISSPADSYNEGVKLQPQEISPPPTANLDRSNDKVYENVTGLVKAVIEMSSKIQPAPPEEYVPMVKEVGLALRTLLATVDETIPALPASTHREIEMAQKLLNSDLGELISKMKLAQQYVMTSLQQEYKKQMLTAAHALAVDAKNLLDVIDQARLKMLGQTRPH
T4 sequence (P40338 whole entry, looked up): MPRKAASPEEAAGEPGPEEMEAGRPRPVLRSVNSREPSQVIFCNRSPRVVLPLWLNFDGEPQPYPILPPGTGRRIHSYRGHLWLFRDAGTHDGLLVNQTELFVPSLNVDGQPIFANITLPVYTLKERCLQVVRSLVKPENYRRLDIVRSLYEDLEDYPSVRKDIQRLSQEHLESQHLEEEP
Experiment [19] has as its target T4, von Hippel-Lindau disease tumor suppressor/Focal adhesion kinase 1 (Mus musculus). The experiment can be described thus: In vivo protac activity at VHL/FAK xenografted in CD-1 mouse liver assessed as reduct ion in FAK level at 80 mg/kg, sc measured after 96 hrs relative to control. It is filed as functional, organism-based.
Experiment [20] has as its target T5, Nicotinamide phosphoribosyltransferase (Homo sapiens, UniProt P43490). The experiment can be described thus: Induction of degradation NAMPT (unknown origin) assessed as maximum degradation relative to control.
Target sequence in this assay (P43490 whole entry, looked up): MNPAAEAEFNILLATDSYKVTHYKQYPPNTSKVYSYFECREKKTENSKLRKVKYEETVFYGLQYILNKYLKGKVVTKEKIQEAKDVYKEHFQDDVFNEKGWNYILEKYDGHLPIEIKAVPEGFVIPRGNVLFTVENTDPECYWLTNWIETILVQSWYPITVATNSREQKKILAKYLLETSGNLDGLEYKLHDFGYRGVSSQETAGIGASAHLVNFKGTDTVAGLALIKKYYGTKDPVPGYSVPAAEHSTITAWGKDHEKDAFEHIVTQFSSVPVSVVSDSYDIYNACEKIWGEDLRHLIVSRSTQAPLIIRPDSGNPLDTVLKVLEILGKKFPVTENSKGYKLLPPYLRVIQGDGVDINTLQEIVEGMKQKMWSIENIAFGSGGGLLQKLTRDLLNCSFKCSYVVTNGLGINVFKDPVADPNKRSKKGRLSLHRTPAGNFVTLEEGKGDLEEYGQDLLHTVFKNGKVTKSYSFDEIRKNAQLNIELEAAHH
Experiment [21] deals with T5, Nicotinamide phosphoribosyltransferase. The experiment can be described thus: Induction of degradation NAMPT (unknown origin).
Target sequence in this assay (P43490 whole entry): as the sequence (P43490 whole entry, looked up) above
For experiment [22] the target is unchanged. The experiment can be described thus: Inhibition of NAMPT (unknown origin).
Target sequence in this assay (P43490 whole entry): as the sequence (P43490 whole entry, looked up) above

Peptidyl-prolyl cis-trans isomerase FKBP1A, sequence (P62942 whole entry): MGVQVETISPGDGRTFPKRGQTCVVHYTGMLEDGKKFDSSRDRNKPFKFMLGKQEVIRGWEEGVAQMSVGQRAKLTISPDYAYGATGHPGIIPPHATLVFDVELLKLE

As usually defined, the IC50 is the midpoint of a concentration-inhibition curve. In the case of `COc1cc(Nc2ncc3c(n2)-c2ccc(Cl)cc2C(c2c(F)cccc2OC)=NC3)ccc1C(=O)O` [ALISERTIB], the IC50 in the experiment with MV4-11 is 0.0012 µM.
As a reminder, the Emax is the size of the effect at its maximum, as opposed to the concentration needed. In general, EC50 refers to the concentration at which the effect is half-maximal. `O=C(CCCO/N=C1/C(=C2/C(=O)N(Cc3cn(CCOCCNc4cccc5c4C(=O)C(N4CCC(=O)NC4=O)C5=O)nn3)c3ccccc32)Nc2ccccc21)NO` (centres undefined): the Emax in experiment [1] was 88%. In addition, the EC50 in experiment [2] was found to be 0.109 µM.
Consider `C[C@H](CC(=O)N1CCC(O)(Cn2cnc3c(-c4ccc(CNCCCCCCCCCCCNc5cccc6c5C(=O)N(C5CCC(=O)NC5=O)C6=O)cc4)n(C)nc3c2=O)CC1)c1ccccc1` (some centres undefined), for which the IC50 in experiment [3] is 1.18 µM; in the experiment with JeKo-1, 1.03 µM. The compound also had an EC50 in [4] of 0.033 µM.
Turning to `Cc1ncsc1-c1ccc(CNC(=O)[C@@H]2C[C@@H](O)CN2C(=O)[C@@H](NC(=O)CCOCCOc2ccc(Nc3ncc(C(F)(F)F)c(NCc4cccc(N(C)S(C)(=O)=O)c4)n3)cc2)C(C)(C)C)cc1`, the EC50 on Focal adhesion kinase 1 [5] was 0.003 µM. For the same compound, the Emax on Focal adhesion kinase 1 [6] was determined as 99%.
In experiment [7], `COC1C[C@H](C[C@@H](C)[C@@H]2CC(=O)C(C)/C=C(\C)[C@@H](O)[C@@H](OC)C(=O)[C@H](C)C[C@H](C)/C=C/C=C/C=C(\C)[C@@H](OC)C[C@@H]3CC[C@@H](C)[C@](O)(O3)C(=O)C(=O)N3CCCC[C@H]3C(=O)O2)CCC1OCCOCc1cn(CCOCCOCCNc2cccc3c2C(=O)N(C2CCC(=O)NC2=O)C3=O)nn1` (some centres undefined) returned an EC50 of 0.00027 µM.
Take `C[C@H](CC(=O)N1CCC(O)(Cn2cnc3c(-c4ccc(CN)cc4)n(C)nc3c2=O)CC1)c1ccccc1`: the IC50 (in experiment [3]; in the experiment with JeKo-1) was greater than 20 µM throughout.
For orientation: TGI means how far tumour growth fell short of that in controls. `O=S(=O)(c1ccc(NC(=S)NCc2cccnc2)cc1)N1CCN(Cc2ccccc2)CC1`: in [8], the TGI was 40%.
In the case of `Cc1cc(C)c(CNC(=O)c2cc(-c3ccc(N4CCN(CCNC(=O)CCOCCNc5cccc6c5C(=O)N(C5CCC(=O)NC5=O)C6=O)CC4)nc3)cc3c2cnn3C(C)C)c(=O)[nH]1` (centres undefined), the Emax in [9] was 68%; in experiment [11] it was 82%. This compound registered an IC50 in experiment [10] of 0.007 µM. The EC50 turned out to be 0.2 µM in [12] and 1.5 µM in experiment [13].
By GI50 is commonly meant the concentration that inhibits growth by half. In the case of `CCN(c1cc(-c2ccc(CN3CCN(C(=O)CCCCCCCC(=O)N[C@H](C(=O)N4C[C@H](O)C[C@H]4C(=O)NCc4ccc(-c5scnc5C)cc4)C(C)(C)C)CC3)cc2)cc(C(=O)NCc2c(C)cc(C)[nH]c2=O)c1C)C1CCOCC1`, the GI50 is 1.4 µM in [14] and 1.7 µM in [15]. In experiment [16], this compound registered an EC50 of 0.14 µM.
`CCN(c1cc(-c2ccc(CN3CCN(C(=O)CCCCCCCC(=O)N[C@H](C(=O)N4C[C@H](OCc5ccccc5)C[C@H]4C(=O)NCc4ccc(-c5scnc5C)cc4)C(C)(C)C)CC3)cc2)cc(C(=O)NCc2c(C)cc(C)[nH]c2=O)c1C)C1CCOCC1`: the GI50 in experiment [17] was greater than 10 µM. Moreover, in [10], the midpoint of inhibition, the IC50, lay at 0.013 µM.
On Aurora kinase A, `COc1cc(Nc2ncc3c(n2)-c2ccc(Cl)cc2C(c2c(F)cccc2OC)=NC3)ccc1C(=O)NCCOCCOCCNC(=O)COc1cccc2c1C(=O)N(C1CCC(=O)NC1=O)C2=O` (centres undefined) gave an EC50 of 0.028 µM.
For `CNC(=O)c1ccccc1Nc1cc(Nc2ccc(N3CCN(CC(=O)N[C@H](C(=O)N4C[C@H](O)C[C@H]4C(=O)N[C@@H](C)c4ccc(-c5scnc5C)cc4)C(C)(C)C)CC3)cc2OC)ncc1C(F)(F)F`, the Emax was found to be 85% in experiment [18] and 60% in experiment [19].
For the compound `Cc1ncsc1-c1ccc(C(C)NC(=O)C2CC(O)CN2C(=O)C(NC(=O)COCCOCCOCCOCCNC(=O)c2ccc(CN3CCN(S(=O)(=O)c4ccc(NC(=S)NCc5ccccc5)cc4)CC3)cc2)C(C)(C)C)cc1` (centres undefined), in experiment [20], the Emax came to 90%. Moreover, in experiment [21], the midpoint of the response, the EC50, lay at 0.0071 µM. Moreover, in experiment [8], the TGI amounted to 80%. In [22], this compound showed an IC50 of 0.0095 µM.
